Data taken from US8598209B2, “P2X3, receptor antagonists for treatment of pain” (Merck Sharp & Dohme Corp., priority 2008, dated 2013).

molecular target: T1, human P2X3 (Homo sapiens, UniProt P56373); test: Intracellular Calcium Measurement to Assess Antagonist Affinity (FLIPR, Fluo-4), human P2X3 cells; assay type: cell-based; conditions: Intracellular Calcium Measurement to Assess Antagonist Affinity assay; agonist α,β-meATP at EC50
T1 construct: expressed in transfected cells
T1 sequence (P56373 1-397): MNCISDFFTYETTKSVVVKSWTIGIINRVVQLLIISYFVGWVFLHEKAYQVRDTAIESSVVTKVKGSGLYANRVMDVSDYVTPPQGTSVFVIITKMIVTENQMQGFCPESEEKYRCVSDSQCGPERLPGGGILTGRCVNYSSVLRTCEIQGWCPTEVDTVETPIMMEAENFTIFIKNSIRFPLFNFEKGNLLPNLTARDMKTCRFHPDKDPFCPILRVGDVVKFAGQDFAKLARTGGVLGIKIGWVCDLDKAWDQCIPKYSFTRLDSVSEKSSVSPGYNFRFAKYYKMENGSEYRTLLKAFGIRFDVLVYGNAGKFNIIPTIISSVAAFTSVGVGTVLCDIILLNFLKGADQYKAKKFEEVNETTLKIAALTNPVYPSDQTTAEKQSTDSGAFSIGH
Text: Generation of a Human P2X3 and P2X2/3 Stable Cell Line—
Human P2X3 receptor cDNA (Accession number NM_002559) was subcloned as a 5′XhoI and 3′HindIII fragment into the expression vector pcDNA5/FRT (Invitrogen). Human P2X2 receptor cDNA (Accession number NM_174873) was subcloned as a 5′EcoRI and 3′NotI fragment into the expression vector pIRESneo2 (BD Biosciences Clontech). The human P2X3 expression construct was transfected using Lipofectamine 2000 (Invitrogen) into Flp-in—293 cells (Invitrogen) according to the manufacturer's directions. Cells positive for flp-mediated recombination of […] P2X3 were selected using 150 μg/ml hygromycin. The stable human P2X3 cell line was co-transfected with the human P2X2 expression construct using Lipofectamine 2000 as above and co-transfected cells selected using […] hygromycin and 1 mg/ml G418. The stable P2X3 cell line was propagated in DMEM, 10% FBS, 100 μg/ml hygromycin, and 100 units/ml penicillin and 100 μg/ml streptomycin, and maintained at 37° and 95% humidity. The stable P2X2/3 cell line was propagated as above with the addition of 500 μg/ml G418.
Intracellular Calcium Measurement to Assess Antagonist Affinity—
A fluorescent imaging plate reader (FLIPR; Molecular Devices) was used to monitor intracellular calcium levels using the calcium-chelating dye Fluo-4 (Molecular Probes). The excitation and emission wavelengths used to monitor fluorescence were 488 nm and 530 nm, respectively. Cells expressing either human P2X3 or human P2X2/3 were plated at a density of 20,000 cells/well (20 μl/well) in 384-well black-walled plates approximately 20 hours before beginning the assay. On the day of the assay 20 μl of loading buffer (Hank's balanced salt solution, 2.5 mM CaCl2, 20 mM HEPES, 0.1% BSA, 2.5 mM probenecid, TR-40, Fluo-4, and 138 mM NMDG substituted for NaCl) is added and cells dye-loaded for 60 min in the dark at room temperature. Ten minutes prior to adding agonist, the antagonist was added in a volume of 10 μl and allowed to incubate at room temperature. During this period fluorescence data is collected at 3 sec intervals followed by 10 sec intervals. The agonist, α,β-meATP, is added at a 6× concentration ([α,β-meATP]final=EC50). Following agonist addition fluorescence was measured at 5 sec intervals and analyzed based on the increase in peak relative fluorescence units (RFU) compared to the basal fluorescence. Peak fluorescence was used to determine the inhibitory effect at each concentration of antagonist by the following equation: % Inhibition=100*(1−((RFU(drug)−RFU(control))/(RFU(DMSO only)−RFU(control)))) In vitro Electrophysiological Assay—

| IC50 [nM] | Compound |
| --- | --- |
| 23 | C[C@@H](NC(=O)c1cc(-c2ccc(F)cc2F)nc(C(C)(C)O)c1)c1ccc(C(F)(F)F)[n+]([O-])c1 [Example 1.62, 2-(2,4-Difluorophenyl)-6-(1-hydroxy-1-methylethyl)-N-{(1R)-1-[1-oxido-6-(trifluoromethyl)pyridin-3-yl]ethyl}isonicotinamide] |
| 165 | Cc1ccc(-c2cc(C(=O)N[C@@H](C)c3nnc[nH]3)nc(-c3ccc(C)cc3)n2)cc1 [Example 2.1] |
| 42 | Cc1ccc(-c2cc(C(=O)N[C@H](C)c3nc(C)no3)cnc2OC(C)C)cc1 [Example 3.22] |
| 48 | Cc1noc([C@@H](C)NC(=O)c2cc(-c3ccc(F)cc3)c(=O)n(C(C)C)c2)n1 [Example 5.61, 5-(4-fluorophenyl)-1-isopropyl-N-[(1R)-1-(3-methyl-1,2,4-oxadiazol-5-yl)ethyl]-6-oxo-1,6-dihydropyridine-3-carboxamide] |
